Earlier results, collected in patent US20160158203A1, “METHODS OF TREATMENT WITH BIOAVAILABLE COMPOSITIONS OF METAXALONE COMPRISING NONVOLATILE LIQUIDS” (priority 2004, published 2016).

Conditions: as reviewed in U.S. Pat. Nos. 6,407,128 and 6,683,102

- Aqueous solubility (description): essentially water-insoluble
SMILES: Cc1cc(C)cc(OCC2CNC(=O)O2)c1 (stereo not shown) [metaxalone, 5-[(3,5-dimethylphenoxy)methyl]-2 oxazolidinone]
